Experimental data reported in patent publication US12122750B2, “AT2R antagonists and uses thereof” (Eli Lilly and Company, priority 2022, dated 2024).

Legend:
rAT2R = rAT2R (Rattus norvegicus (Rat), UniProt P35351); assay: Rat binding affinity, competitive radioligand binding assay (SPA), rAT2R HEK293 membranes; conditions: rat AT2R
Procedure: Membrane Preparation Protocol (hAT2R HEK293 and rAT2R HEK293)
Receptor Binding Protocol
The assays were performed with a scintillation proximity assay (SPA) method using polyvinyltoluene (PVT) wheat germ agglutinin-coupled SPA beads (Perkin Elmer Cat. #RPNQ0001). Assay buffer containing BSA (50 mM Tris-HCl, pH 7.5, 150 mM NaCl, 0.1% w/v fatty-acid free BSA) was used for preparing radioligand, membrane and SPA bead reagent dilution to working stock concentrations. Reference control and test compounds were diluted to obtain ten-point concentration response curves using a four-fold serial dilution protocol onto assay plates, dispensed acoustically from DMSO stock using automated ECHO instrument technology (Labcyte, Inc.). Concentration response curves were routinely generated with the highest final assay concentration for the reference angiotensin-II control at 50 nM, and the highest final assay concentration for the test compounds at 50 μM. […] The hAT2R membrane was combined with PVT-WGA SPA beads to obtain a final assay concentration of 0.25 μg/well hAT2R membrane+0.1 mg/well PVT-WGA SPA bead. And the hAT1R membrane PVT-WGA SPA bead final concentrations was 0.5 μg/well hAT1R membrane+0.1 mg/well PVT-WGA SPA bead. […] For all assays, radioligand addition was followed by the addition of membrane-SPA bead mixture, i.e., the hAT2R membrane-SPA bead mixture (30 μL), the rAT2R membrane-SPA bead mixture, or the AT1R membrane-SPA bead mixture (30 μL) into the assay plate. All dispensing steps were added using a Multiflo FX (Biotek, Inc.) bulk dispensing instrument. After reagent addition steps, assay plates were sealed, and plate contents mixed for one minute on a benchtop micro-plate shaker. Following a 10-hour incubation at room temperature to allow for bead settling and radioligand binding, bound radioactivity was quantitated using a Microbeta Trilux scintillation counter (Perkin Elmer) and expressed as counts per minute (CPM). The unlabeled angiotensin-II control was included on each plate as an experimental assay reference.
Compounds were tested in a 10-point concentration response curve (CRC) format, with each plate containing the positive control angiotensin-II positive reference compound, and experimental compounds. Maximum binding response (Max) was determined in 32 control wells per plate using assay buffer treatment only, and the minimum binding controls or nonspecific binding response (Min) was also determined in 32 wells per plate by the treatment with 50 nM angiotensin-II. All test sample concentration responses were normalized to the control response and calculated as a percent of the maximal response after correcting for nonspecific binding as shown below: % Specific inhibition=100%−[(CPM−Min)/(Max−Min)×100%]
Percent specific binding (y-axis) was plotted versus the log concentration of compound (x-axis).

AT2R = AT2R (Rattus norvegicus (Rat), UniProt P35351); assay: AT2R ex vivo autoradiography receptor occupancy in rat adrenal sections after oral dosing; set-up: species or system Sprague Dawley rats; conditions: for IC50 / IC80: plasma concentration plotted vs % receptor occupancy, rat; for receptor occupancy at 0.3 mg/kg: oral dose 0.3 mg/kg; for receptor occupancy at 1 mg/kg: oral dose 1 mg/kg; for receptor occupancy at 3 mg/kg: oral dose 3 mg/kg; for receptor occupancy at 10 mg/kg: oral dose 10 mg/kg; for ex vivo IC50 (TER) / ex vivo IC80 (TER): rat receptor occupancy
Procedure: The ability for a compound to engage its target may be measured by determining compound's receptor occupancy. An ex vivo autoradiography assay was conducted as described herein.
Twenty male Sprague Dawley rats (140-150 gms, Envigo) were maintained under controlled laboratory conditions on a 12 hr light cycle with ad lib access to food and water. […] Following a pre-determined survival time, plasma and adrenals were collected and frozen at −80° C. until analyzed. Frozen 20 μm sections of an adrenal from each animal were collected onto gelatin-coated slides and stored at −80° C. […] The specific ligand binding for each animal is calculated by subtracting the non-specific binding from the total bound.

Sequence of AT2R (P35351 whole entry): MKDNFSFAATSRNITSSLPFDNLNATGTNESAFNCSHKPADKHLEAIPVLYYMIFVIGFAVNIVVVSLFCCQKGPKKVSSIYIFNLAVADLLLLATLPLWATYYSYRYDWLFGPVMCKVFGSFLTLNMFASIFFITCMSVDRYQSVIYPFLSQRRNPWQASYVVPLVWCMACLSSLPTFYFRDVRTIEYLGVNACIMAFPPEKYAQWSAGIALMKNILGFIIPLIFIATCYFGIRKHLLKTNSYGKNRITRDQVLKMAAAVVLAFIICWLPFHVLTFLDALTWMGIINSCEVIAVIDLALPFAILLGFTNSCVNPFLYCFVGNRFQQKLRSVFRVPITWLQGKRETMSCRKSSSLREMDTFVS
Sequence of rAT2R (P35351 whole entry): as above

Compound | Ki (rAT2R) [nM] | IC50 (AT2R) [nM] | IC80 (AT2R) [nM] | receptor occupancy at 0.3 mg/kg (AT2R; rat adrenal, read-out: % RO) [%] | receptor occupancy at 1 mg/kg (AT2R; rat adrenal, read-out: % RO) [%] | receptor occupancy at 3 mg/kg (AT2R; rat adrenal, read-out: % RO) [%] | receptor occupancy at 10 mg/kg (AT2R; rat adrenal, read-out: % RO) [%] | ex vivo IC50 (TER) (AT2R) | ex vivo IC80 (TER) (AT2R) | receptor occupancy at 0.01 mg/kg (AT2R; rat adrenal, oral dose 0.01 mg/kg, read-out: % RO) [%] | receptor occupancy at 0.03 mg/kg (AT2R; rat adrenal, oral dose 0.03 mg/kg, read-out: % RO) [%] | receptor occupancy at 0.1 mg/kg (AT2R; rat adrenal, oral dose 0.1 mg/kg, read-out: % RO) [%]
O=C(N1CCC(CC(=O)N(c2ccccc2)c2ccccc2)(C(=O)O)CC1)N1CCc2ccccc21 [Example 3, 1-(indoline-1-carbonyl)-4-[2-oxo-2-(N-phenylanilino)ethyl]piperidine-4-carboxylic acid] | 2.19 | 0.821 | 3.34 | 37.8 | 61.9 | 83.5 | 90.5 | 0.375 | 1.525 | – | – | –
CN(C(=O)N1CCC(CC(=O)N(c2ccccc2)C(C2CC2)C2CC2)(C(=O)O)CC1)c1ccc(F)cc1 [Example 18, 4-[2-[N-(dicyclopropylmethyl)anilino]-2-oxo-ethyl]-1-[(4-fluorophenyl)-methyl-carbamoyl]piperidine-4-carboxylic acid] | 0.614 | 0.114 | 0.449 | 79.3 | 93.2 | 90.9 | 93 | 0.186 | 0.731 | 16.3 | 65 | 76.3
